The text below walks through data of patent US20250346943A1, “DEGRADER COMPOUNDS OF QSOX1 mRNA” (UNIVERSITY OF FLORIDA RESEARCH FOUNDATION, INCORPORATED, priority 2022, published 2025).

Type in all cases: cell-based, human
One test relates to QSOX1 mRNA. As to the kind of experiment: Chem-CLIP pull-down of QSOX1 mRNA in live cells, RT-qPCR (dose and time dependence). On the procedure:
Chemical-Cross-linking and Isolation by Pull-down (Chem-CLIP) in Live Cells. MDA-MB-231 cells were seeded in 60 mm dishes and allowed to reach ˜80% confluency. The cells were then treated with 20 μM of compound in growth medium and incubated for 16 h. Cells were washed with 1×DPBS and irradiated with UV light for 10 min. Total RNA was harvested using a Zymo Quick-RNA Miniprep Kit per the manufacturer's protocol with DNase treatment. Total RNA was chemically fragmented by using an NEBNext Magnesium RNA Fragmentation Module (E6150S) per manufacturer's protocol to achieve final lengths between 100-150 nucleotides Pull-down of cross-linked RNAs was performed by adding 10 μg of total RNA to 100 μL of azide-disulfide agarose beads (Click Chemistry Tools, 1238-2) pre-washed with 25 mM HEPES, pH 7.0. The click reaction and pull-down were completed as described in “In Vitro Chemical-Crosslinking and Isolation by Pull-down (Chem-CLIP) with Fluorescently Labeled RNA”. The pulled down RNA was purified by RNA CleanXP beads (Beckman, A66514) per manufacturer's protocol.
For dose response studies, cells were treated with varying concentration of F1 (1, 5, 20 μM) as described above for 16 h. For time course studies, cells were treated with 20 μM of for 1, 4, 8, or 16 h. With the exception of compound concentration or time at which total RNA was harvested, the remaining steps of the protocol were completed as described above for both concentration- and time-dependent studies.
(§1) Analysis of mRNA Abundance by RT-qPCR. Unless stated otherwise, all RT-qPCR experiments were performed to measure nascent RNA levels by using Click-it Nascent RNA Capture Kit (Cat #C10365, Thermo Fisher) per the manufacturer's protocols. Briefly, cells were treated with 0.2 mM of ethynyl uridine (EU) in growth medium for 16 h, after which the medium was replaced with fresh growth medium lacking EU. Compound or ASO treatment was performed at the same time of initial EU treatment, and compounds were replenished after replacing the medium to remove EU. Total RNA was extracted by using a Zymo Quick-RNA Miniprep Kit as per manufacturer's protocol with DNase treatment. The click reaction and pull-down of nascent RNA were performed as described in “In Vitro Chemical-Crosslinking and Isolation by Pull-down (Chem-CLIP) with Fluorescently Labeled RNA”. Reverse transcription (RT) was performed by using 300 ng total RNA and a QScript cDNA synthesis kit (QuantaBio) per manufacturer's protocols qPCR was performed in 384-well plates by using Power SYBR Green Master Mix (Life Technologies) on a QuantStudioS™ Cycler (Applied Biosystems) using the “Comparative Ct with Melt” method.
A general note: Real-time PCR tracks product formation cycle by cycle.

The test system of another test is QSOX1-a protein. As to the kind of experiment: QSOX1-a protein abundance by Western blotting in MDA-MB-231 cells. Particulars: 10 μM. On the procedure:
(§2) Measuring Protein Abundance by Western Blotting. MDA-MB-231 cells were seeded in 6-well plates at ˜50% confluency and treated with vehicle (DMSO) or compound as described above but without EU treatment. After 16 h, the compound-containing growth medium was removed and replaced with fresh medium containing compound (re-dosing). After an additional 32 h incubation, total protein was harvested (48 h total treatment time). The cells were then washed twice with cold 1×DPBS, and total protein was harvested by using Mammalian Protein Extraction Reagent (M-PER, Thermo Scientific) per the manufacturer's protocol. Protein concentration was quantified by using BCA Protein Assay Kit (Pierce), and the proteins were separated by using 10% SDS-polyacrylamide gel (20 μg protein per lane). After gel electrophoresis in 1× Running Buffer (50 mM MOPS, 50 mM Tris-base, pH 7.5, 1 mM EDTA, and 0.1% (w/v) SDS) at 120 V for 1 h, the proteins were transferred to a PVDF membrane (0.45 μm, Cytiva) at 300 mA for 1 h in 1× Transfer Buffer (25 mM Bicine, 25 mM Tris-base, pH 7.5, 1:4 MeOH:H2O). The membrane was blocked with 5% (w/v) non-fat dry milk in TBST (1×TBS containing 0.1% (v/v) Tween-20) for 1 h at room temperature. The primary antibody for QSOX1 protein (Cat #10092-932, Proteintech) or SQSTM1 protein (Cat #ab 109012, Abcam) was incubated with 1:1000 dilutions at 4° C. for 16 h. The membrane was then washed by TBST four times (5 min each) and then incubated with the secondary antibody (Cat #7074S, Cell Signaling) with 1:5000 dilution at room temperature for 2 h. The membrane was washed with TBST four times (5 min each) and imaged by using a SuperSignal West Pico Chemiluminescent Substrate (Pierce) per manufacturer's protocol. The blot was stripped by washing the membrane in 1× Stripping Buffer (200 mM glycine, pH 2.2, 4 mM SDS, 1% (v/v) Tween 20) at room temperature for 30 min, followed by blocking again as described above. […] Expression levels of proteins were quantified based on band intensity by using ImageJ. […]
Background: A western blot detects proteins with antibodies after separation by electrophoresis.

The next test deals with SQSTM1 mRNA. As to the kind of experiment: SQSTM1 mRNA abundance by RT-qPCR in MDA-MB-231 cells. The following applies: 48 h treatment. On the procedure: as §1
The next test relates to QSOX1-a mRNA. The test is described as follows: QSOX1-a mRNA abundance by RT-qPCR in MDA-MB-231 cells. Set-up: dose or concentration left out as unconfirmed. Particulars: at the, the highest dose. On the procedure: as §1
For a further test, the system named is QSOX-1b. As to the kind of experiment: QSOX1-b protein abundance by Western blotting in MDA-MB-231 cells. On the procedure:
as §2, with “temperature.” for “temperature. The primary antibody for QSOX1 protein (Cat #10092-932, Proteintech) or SQSTM1 protein (Cat #ab 109012, Abcam) was incubated with 1:1000 dilutions at 4° C. for 16 h. The membrane was then washed by TBST four times (5 min each) and then incubated with the secondary antibody (Cat #7074S, Cell Signaling) with 1:5000 dilution at room temperature for 2 h. The membrane was washed with TBST four times (5 min each) and imaged by using a SuperSignal West Pico Chemiluminescent Substrate (Pierce) per manufacturer's protocol. The blot was stripped by washing the membrane in 1× Stripping Buffer (200 mM glycine, pH 2.2, 4 mM SDS, 1% (v/v) Tween 20) at room temperature for 30 min, followed by blocking again as described above.”

The next test concerns SQSTM1 protein. As to the kind of experiment: SQSTM1 protein abundance by Western blotting in MDA-MB-231 cells. Particulars: F1-Amide 20 μM, F1-RIBOTAC 10 μM, 48 h. On the procedure: as §2, with “temperature.” for “temperature. The primary antibody for QSOX1 protein (Cat #10092-932, Proteintech) or SQSTM1 protein (Cat #ab 109012, Abcam) was incubated with 1:1000 dilutions at 4° C. for 16 h. The membrane was then washed by TBST four times (5 min each) and then incubated with the secondary antibody (Cat #7074S, Cell Signaling) with 1:5000 dilution at room temperature for 2 h. The membrane was washed with TBST four times (5 min each) and imaged by using a SuperSignal West Pico Chemiluminescent Substrate (Pierce) per manufacturer's protocol. The blot was stripped by washing the membrane in 1× Stripping Buffer (200 mM glycine, pH 2.2, 4 mM SDS, 1% (v/v) Tween 20) at room temperature for 30 min, followed by blocking again as described above.”

As to `C#CCCC1(CCC(=O)N(C)[C@H]2CC[C@@H](c3ccc(Cl)c(Cl)c3)c3ccccc32)N=N1` [Compound F1], the “enrichment of QSOX1 mRNA” value in the test with QSOX1 mRNA (5 μM, 16 h incubation) is ~6 fold; in the test on QSOX1 mRNA (20 μM, 1 h incubation), “no enrichment”; with QSOX1 mRNA (20 μM, 4 h), ~4 fold; in the test on QSOX1 mRNA (20 μM, 8 h and 16 h time points), “plateauing”; in the test on QSOX1 mRNA (20 μM, 16 h incubation) it was ~12 fold.

For `CCOC(=O)C1=C(Nc2ccccc2)S/C(=C\c2ccc(OCCOCCOCCOCCNC(=O)CCC(=O)N(C)[C@H]3CC[C@@H](c4ccc(Cl)c(Cl)c4)c4ccccc43)c(O)c2)C1=O` [Compound F1-RIBOTAC], the “reduction of QSOX1-a protein abundance” value in the test on QSOX1-a protein is given as ~35%. In addition, the “effect on SQSTM1 mRNA levels” value with SQSTM1 mRNA is “No significant effect”. For the same molecule, the “decrease of QSOX1-a mRNA levels” value in the test with QSOX1-a mRNA was ~35%. The “effect on QSOX-1b levels” value with QSOX-1b was “no effect”. Further, the “effect on SQSTM1 protein levels” value in the test with SQSTM1 protein was “Neither”.
